Data: patent EP0355842A2, “External preparation” (Sansho Seiyaku Co., Ltd., priority 1988, dated 1990)

Tested on: B16 cells
Test: Melanin-production test of B16 cells
Format: cell-based, mouse
Details: evaluated concentration 80 µM; culture for 5 days
Experimental: Experimental Example: Melanin-production test of B16 cells
B16 cells (4 x 10⁴) derived from mouse melanoma are suspended in Eagle MBM medium containing bovine fetal serum (10 ml) for culture in the presence of 5% CO₂ at 37°C in 25-cm³ Rou bottle. At day 0 and 3, the medium is replaced for a medium containing each of the above substances of 80 µM/l or 60 µM/l to continue the culture for 5 days. The cells washed with phosphate buffer (pH 7.2) containing 0.8 W/V NaCl, were separated using the solution containing trypsin and EDTA, and filtered to recover the cells. The cells recovered on the filter were measured of their reflection luminous intensity (degree of darkness) at 500 nm with a densitometer.

| Number of cells | Compound | Melanin levels |
| --- | --- | --- |
| 2.0 × 10^4 cells | CCCCCCC=CCCCCCCCCC(=O)OCC(O)CO (stereo not drawn) [1-Monoheptadecenoin] | 0.4 µg/10^6 cells |
| 2.4 × 10^4 cells | CCCCCCC=CCC=CCCCCC(=O)O [6,9-Hexadecadienoic acid] | 0.1 µg/10^6 cells |
| 2.4 × 10^4 cells | CCC=CCC=CCCCCCC(=O)O [7,10-Tridecadienoic acid] | 3.2 µg/10^6 cells |
| 2.1 × 10^4 cells | CCCCCCC=CCCCCCCCCC(=O)OCC(O)COC(=O)CCCCCCCCC=CCCCCCC (stereo not drawn) [1,3-Heptadecenoin] | 1.2 µg/10^6 cells |
| 2.7 × 10^4 cells | CCC=CCCCCCCCCC(=O)O [10-Tridecenoic acid] | 3.0 µg/10^6 cells |
| 2.2 × 10^4 cells | 2-Monopentadecenoin | 0.1 µg/10^6 cells |
| 2.6 × 10^4 cells | CCCCC=CCC=CCCCCCC(=O)O [7,10-Pentadecadienoic acid] | 0.1 µg/10^6 cells |
| 2.1 × 10^4 cells | CCCCCC/C=C\CCCCCCCC(=O)OCC(O)COC(=O)CCCCCCC/C=C\CCCCCC [1,3-Dipalmitolein] | 0.1 µg/10^6 cells |
| 2.2 × 10^4 cells | CCCCCC/C=C\CCCCCCCC(=O)OCC(CO)OC(=O)CCCCCCC/C=C\CCCCCC (stereo not drawn) [1,2-Dipalmitolein] | 0.1 µg/10^6 cells |
| 2.6 × 10^4 cells | CC=CCCCCC(=O)OCC(O)CO (stereo not drawn) [1-Monooctenoin] | 4.5 µg/10^6 cells |
| 2.4 × 10^4 cells | CCC=CCC(=O)OC(CO)CO [2-Monohexenoin] | 4.3 µg/10^6 cells |
| 2.6 × 10^4 cells | CCCCC=CCCCCCCCCC(=O)O [10-Pentadecenoic acid] | 0.1 µg/10^6 cells |
| 2.2 × 10^4 cells | CCCCC=CCCCCCCCCC(=O)OCC(COC(=O)CCCCCCCCC=CCCCC)OC(=O)CCCCCCCCC=CCCCC (stereo not drawn) [Tripentadecenoin] | 0.2 µg/10^6 cells |
| 2.5 × 10^4 cells | CCCC/C=C\CCCCCCCC(=O)OCC(CO)OC(=O)CCCCCCC/C=C\CCCC (stereo not drawn) [1,2-Dimyristolein] | 2.8 µg/10^6 cells |
| 2.8 × 10^4 cells | CCCCCC/C=C\CCCCCCCC(=O)OC[C@H](COP(=O)([O-])OCC[N+](C)(C)C)OC(=O)CCCCCCC/C=C\CCCCCC [L-α-Lecithin dipalmitoleyl] | 3.9 µg/10^6 cells |
| 2.7 × 10^4 cells | CC=CC(=O)O [2-Butenoic acid] | 4.6 µg/10^6 cells |
| 2.6 × 10^4 cells | CCCC=CCCCCC(=O)O [6-Decenoic acid] | 4.8 µg/10^6 cells |
| 2.7 × 10^4 cells | CCCC=CCCCCCC(=O)O [7-Undecenoic acid] | 4.7 µg/10^6 cells |
| 2.2 × 10^4 cells | CCCCCC/C=C\CCCCCCCC(=O)OCC(O)CO (stereo not drawn) [1-Monopalmitolein] | 0.1 µg/10^6 cells |
| 2.5 × 10^4 cells | CCCCC=CCC=CCCCCC(=O)O [6,9-Tetradecadienoic acid] | 0.3 µg/10^6 cells |
| 2.7 × 10^4 cells | CCCCCCC=CCCCCCCCCC(=O)OCC(COC(=O)CCCCCCCCC=CCCCCCC)OC(=O)CCCCCCCCC=CCCCCCC (stereo not drawn) [Triheptadecenoin] | 1.0 µg/10^6 cells |
| 2.7 × 10^4 cells | CCC=CCCCCCCCC(=O)OCC(O)CO (stereo not drawn) [1-Monododecenoin] | 4.2 µg/10^6 cells |

| Number of cells | Compound | Melanin levels |
| --- | --- | --- |
| 2.5 × 10^4 cells | CCCC=CCCCCCC(=O)OC(CO)CO [2-Monoundecenoin] | 3.9 µg/10^6 cells |
| 2.7 × 10^4 cells | CCCCCC/C=C/CCCCCCCC(=O)OC[C@H](COP(=O)([O-])OCC[N+](C)(C)C)OC(=O)CCCCCCC/C=C/CCCCCC [L-α-Lecithin dipalmitoelaidoyl] | 3.8 µg/10^6 cells |
| 2.6 × 10^4 cells | CCCC/C=C\CCCCCCCC(=O)OC [Myristoleic acid methyl] | 1.2 µg/10^6 cells |
| 2.2 × 10^4 cells | CCCCCCC=CCCCCCCCCC(=O)OC(CO)CO [2-Monoheptadecenoin] | 0.3 µg/10^6 cells |
| 2.6 × 10^4 cells | CCCCCC/C=C\CCCCCCCC(=O)OC [Palmitoleic acid methyl] | 0.1 µg/10^6 cells |
| 2.7 × 10^4 cells | CCC=CCCCCCCCC(=O)O [9-Dodecenoic acid] | 4.6 µg/10^6 cells |
| 2.5 × 10^4 cells | CCC=CCC=CCCCCC(=O)O [6,9-Dodecadienoic acid] | 4.4 µg/10^6 cells |
| 2.5 × 10^4 cells | CCCCCCC=CCCCCCCCCC(=O)OC [10-Heptadecenoic acid methyl] | 2.0 µg/10^6 cells |
| 2.5 × 10^4 cells | CCCC/C=C\CCCCCCCC(=O)OCC(COC(=O)CCCCCCC/C=C\CCCC)OC(=O)CCCCCCC/C=C\CCCC [Trimyristolein] | 1.5 µg/10^6 cells |
| 2.1 × 10^4 cells | CCCCC=CCCCCCCCCC(=O)OCC(O)COC(=O)CCCCCCCCC=CCCCC (stereo not drawn) [1,3-Dipentadecenoin] | 0.2 µg/10^6 cells |
| 2.4 × 10^4 cells | CCC=CCCCCCCCC(=O)OCC(CO)OC(=O)CCCCCCCC=CCC (stereo not drawn) [1,2-Didodecenoin] | 4.0 µg/10^6 cells |
| 2.0 × 10^4 cells | CCCC/C=C\CCCCCCCC(=O)OCC(O)COC(=O)CCCCCCC/C=C\CCCC [1,3-Dimyristoelin] | 1.2 µg/10^6 cells |
| 2.5 × 10^4 cells | CCCC=CCC=CCC=CCCCCC(=O)O [6,9,12-Hexadecatrienoic acid] | 0.1 µg/10^6 cells |
| 2.1 × 10^4 cells | CCCCCC/C=C\CCCCCCCC(=O)OC(CO)CO [2-Monopalmitolein] | 0.1 µg/10^6 cells |
| 2.4 × 10^4 cells | CCCCC=CCCCCCCCCC(=O)OCC(O)CO (stereo not drawn) [1-Monopentadecenoin] | 0.1 µg/10^6 cells |
| 2.5 × 10^4 cells | CCCC/C=C\CCCCCCCC(=O)OCC(O)CO (stereo not drawn) [1-Monomyristolein] | 2.2 µg/10^6 cells |
| 2.6 × 10^4 cells | CC=CCCCCC(=O)O [6-Octenoic acid] | 4.7 µg/10^6 cells |
| 2.5 × 10^4 cells | CCCCC=CCCCCCCCCC(=O)OCC(CO)OC(=O)CCCCCCCCC=CCCCC (stereo not drawn) [1,2-Dipentadecenoin] | 0.1 µg/10^6 cells |
| 2.7 × 10^4 cells | CCCCC=CCCCCCCCCC(=O)OC [10-Pentadecenoic acid methyl] | 0.1 µg/10^6 cells |
| 2.5 × 10^4 cells | CCCCC=CCCCCCCCC(=O)O [9-Tetradecenoic acid] | 0.3 µg/10^6 cells |
| 2.1 × 10^4 cells | CCCCCC/C=C\CCCCCCCC(=O)OCC(COC(=O)CCCCCCC/C=C\CCCCCC)OC(=O)CCCCCCC/C=C\CCCCCC [Tripalmitolein] | 0.1 µg/10^6 cells |
| 2.6 × 10^4 cells | CCCCCCC=CCCCCCCCCC(=O)O [10-Heptadecenoic acid] | 0.5 µg/10^6 cells |

| Compound | Number of cells | Melanin levels |
| --- | --- | --- |
| CCCCCCC=CCCCCCCCC(=O)O [9-Hexadecenoic acid] | 3.2 × 10^4 cells | 0.1 µg/10^6 cells |
